Experimental data: patent publication US10913710B2, “Benzene disulfonamide for the treatment of cancer” (priority 2017, dated 2021)

Biological target: PDEδ (Homo sapiens (Human), UniProt O43924)
Assay: Fluorescence polarization competition binding assay: displacement titration of labeled Atorvastatin probe for KD
Conditions: fluorescence polarization assay; activity classes; read-out: KD
Description: Example D.2: Displacement Titrations of Labeled Atorvastatin-Probe for the Determination of KD Values
Displacement Titrations of Labeled Atorvastatin-Probe for the Determination of KD Values:
The purification was followed by size exclusion gel filtration on a Superdex 75 S26/60 column using buffer A (25 mM Tris-HCl, pH 7.5, 150 mM NaCl and 3 mM DTE).

Compound | Kd
COC(=O)c1ccc(CN(CC2CCNCC2)S(=O)(=O)c2ccc(S(=O)(=O)N(Cc3ccc(Cl)cc3)C3CCCC3)cc2)cc1N [Compound 23, methyl 2-amino-4-(((4-(N-(4-chlorobenzyl)-N-cyclopentylsulfamoyl)-N-(piperidin-4-ylmethyl)phenyl)sulfonamido)methyl)benzoate] | 1 to 30 nM
O=S(=O)(c1ccc(S(=O)(=O)N(Cc2ccc(Cl)cc2)C2CCCC2)cc1)N(Cc1cncnc1)CC1CCNCC1 [Compound 27, N1-(4-chlorobenzyl)-N1-cyclopentyl-N4-(piperidin-4-ylmethyl)-N4-(pyrimidin-5-ylmethyl)benzene-1,4-disulfonamide] | 1 to 30 nM
CC(C)(C)[Si](C)(C)OCCN(CC1CCCCC1)S(=O)(=O)c1ccc(S(=O)(=O)N(Cc2ccc(Cl)cc2)C2CCCC2)cc1 [Compound 28] | 100 to 1000 nM
CC(C)(C)[Si](C)(C)OCCCN(CC1CCCCC1)S(=O)(=O)c1ccc(S(=O)(=O)N(Cc2ccc(Cl)cc2)C2CCCC2)cc1 [Compound 29] | 100 to 1000 nM
CC(C)(C)[Si](C)(C)OCCCCN(CC1CCCCC1)S(=O)(=O)c1ccc(S(=O)(=O)N(Cc2ccc(Cl)cc2)C2CCCC2)cc1 [Compound 30] | 100 to 1000 nM
O=S(=O)(c1ccc(S(=O)(=O)N(Cc2ccc(Cl)cc2)C2CCCC2)cc1)N(CCO)CC1CCCCC1 [Compound 31] | 30 to 100 nM
O=S(=O)(c1ccc(S(=O)(=O)N(Cc2ccc(Cl)cc2)C2CCCC2)cc1)N(CCCO)CC1CCCCC1 [Compound 32] | 30 to 100 nM
O=S(=O)(c1ccc(S(=O)(=O)N(Cc2ccc(Cl)cc2)C2CCCC2)cc1)N(CC1CCCCC1)c1cc(C(F)(F)F)ccc1Br [Compound 37, N1-(2-bromo-5-(trifluoromethyl)phenyl)-N4-(4-chlorobenzyl)-N1-(cyclohexylmethyl)-N4-cyclopentylbenzene-1,4-disulfonamide] | 30 to 100 nM
O=CC1Cc2ccccc2N1S(=O)(=O)c1ccc(S(=O)(=O)N(Cc2ccc(Cl)cc2)C2CCCC2)cc1 (stereo not drawn) [Compound 38] | 100 to 1000 nM
CCOC(=O)c1ccccc1CN(CC1CCOCC1)S(=O)(=O)c1ccc(S(=O)(=O)N(Cc2ccc(Cl)cc2)C2CCCC2)cc1 [Compound 40, ethyl 2-(((4-(N-(4-chlorobenzyl)-N-cyclopentylsulfamoyl)-N-((tetrahydro-2H-pyran-4-yl)methyl)phenyl)sulfonamido)methyl)benzoate] | 100 to 1000 nM
Cc1ccc(CN(C2CCCC2)S(=O)(=O)c2ccc(S(=O)(=O)N(Cc3ccccn3)c3sccc3C)cc2)cc1 [Compound 42] | 100 to 1000 nM
Cc1ccc(CN(C2CCCC2)S(=O)(=O)c2ccc(S(=O)(=O)N(Cc3ccccn3)c3sccc3C)cc2)cc1Cl [Compound 43] | 100 to 1000 nM
O=S(=O)(NCC1CCNCC1)c1ccc(S(=O)(=O)N(Cc2ccc(Cl)cc2)C2CCCC2)cc1 [Compound 45, N1-(4-chlorobenzyl)-N1-cyclopentyl-N4-(piperidin-4-ylmethyl)benzene-1,4-disulfonamide] | 1 to 30 nM
CCN(CC)S(=O)(=O)c1ccc(S(=O)(=O)N(Cc2ccccn2)Cc2ccco2)cc1 [Compound 46, N1,N1-diethyl-N4-(furan-2-ylmethyl)-N4-(pyridin-2-ylmethyl)benzene-1,4-disulfonamide] | 100 to 1000 nM
CCN(Cc1ccccc1)S(=O)(=O)c1ccc(S(=O)(=O)N(Cc2ccc(F)cc2)Cc2ccco2)cc1 [Compound 47, N1-benzyl-N1-ethyl-N4-(4-fluorobenzyl)-N4-(furan-2-ylmethyl)benzene-1,4-disulfonamide] | 30 to 100 nM
CCN(Cc1ccccc1)S(=O)(=O)c1ccc(S(=O)(=O)N(Cc2ccccc2)Cc2ccccc2F)cc1 [Compound 49, N1,N4-dibenzyl-N1-ethyl-N4-(2-fluorobenzyl)benzene-1,4-disulfonamide] | 1 to 30 nM
COc1cccc(CN(C2CC2)S(=O)(=O)c2ccc(S(=O)(=O)NCc3ccccc3)cc2)c1OC [Compound 51, N1-benzyl-N4-cyclopropyl-N4-(2,3-dimethoxybenzyl)benzene-1,4-disulfonamide] | 100 to 1000 nM
O=S(=O)(c1ccc(S(=O)(=O)N(Cc2ccc(Cl)cc2)Cc2ccco2)cc1)N1CCCCCC1 [Compound 52, 4-(azepan-1-ylsulfonyl)-N-(4-chlorobenzyl)-N-(furan-2-ylmethyl)benzenesulfonamide] | 100 to 1000 nM
O=S(=O)(NC1CCCC1)c1ccc(S(=O)(=O)N(Cc2ccc(F)cc2)Cc2ccccc2F)cc1 [Compound 53, N1-cyclopentyl-N4-(2-fluorobenzyl)-N4-(4-fluorobenzyl)benzene-1,4-disulfonamide] | 100 to 1000 nM
O=S(=O)(NC1CCCCC1)c1ccc(S(=O)(=O)N(Cc2ccccc2)Cc2ccco2)cc1 [Compound 54, N1-benzyl-N4-cyclohexyl-N1-(furan-2-ylmethyl)benzene-1,4-disulfonamide] | 100 to 1000 nM
CCN(Cc1ccccc1)S(=O)(=O)c1ccc(S(=O)(=O)N(Cc2ccccc2F)CC2CCCO2)cc1 (stereo not drawn) [Compound 55, N1-benzyl-N1-ethyl-N4-(2-fluorobenzyl)-N4-((tetrahydrofuran-2-yl)methyl)benzene-1,4-disulfonamide] | 1 to 30 nM
CC(C)c1ccc(CN(CC2CCCO2)S(=O)(=O)c2ccc(S(=O)(=O)N(C)C3CCCCC3)cc2)cc1 (stereo not drawn) [Compound 56, N1-cyclohexyl-N4-(4-isopropylbenzyl)-N1-methyl-N4-((tetrahydrofuran-2-yl)methyl)benzene-1,4-disulfonamide] | 1 to 30 nM
CC1CCCN(S(=O)(=O)c2ccc(S(=O)(=O)N(Cc3ccccc3F)C3CCCC3)cc2)C1 (stereo not drawn) [Compound 58, N-cyclopentyl-N-(2-fluorobenzyl)-4-((3-methylpiperidin-1-yl)sulfonyl)benzenesulfonamide] | 30 to 100 nM
CC(C)c1ccc(CN(Cc2ccco2)S(=O)(=O)c2ccc(S(=O)(=O)N(C)Cc3ccccc3)cc2)cc1 [Compound 59, N1-benzyl-N4-(furan-2-ylmethyl)-N4-(4-isopropylbenzyl)-N1-methylbenzene-1,4-disulfonamide] | 100 to 1000 nM

Now from value to molecule:

Kd | Compound
30 to 100 nM | CNc1nccc(CN(CC2CCCCC2)S(=O)(=O)c2ccc(S(=O)(=O)N(Cc3ccc(Cl)cc3)C3CCCC3)cc2)n1 [Compound 20, N1-(4-chlorobenzyl)-N4-(cyclohexylmethyl)-N1-cyclopentyl-N4-((2-(methylamino)pyrimidin-4-yl)methyl)benzene-1,4-disulfonamide]
30 to 100 nM | CC(C)(C)c1cc(Br)cc(CN(C2CCCC2)S(=O)(=O)c2ccc(S(=O)(=O)N(Cc3ccccc3)CC3CCNCC3)cc2)c1 [Compound 24, N1-benzyl-N4-(3-bromo-5-(tert-butyl)benzyl)-N4-cyclopentyl-N1-(piperidin-4-ylmethyl)benzene-1,4-disulfonamide]
100 to 1000 nM | O=S(=O)(c1ccc(S(=O)(=O)N(Cc2cc(Br)cc(C(F)(F)F)c2)C2CCCC2)cc1)N(Cc1ccccc1)CC1CCNCC1 [Compound 25, N1-benzyl-N4-(3-bromo-5-(trifluoromethyl)benzyl)-N4-cyclopentyl-N1-(piperidin-4-ylmethyl)benzene-1,4-disulfonamide]
1 to 30 nM | O=S(=O)(c1ccc(S(=O)(=O)N(Cc2ccc(Cl)cc2)C2CCCC2)cc1)N(Cc1ccccc1)CC1CCCNC1 (stereo not drawn) [Compound 26, N1-benzyl-N4-(4-chlorobenzyl)-N4-cyclopentyl-N1-(piperidin-3-ylmethyl)benzene-1,4-disulfonamide]
100 to 1000 nM | O=S(=O)(c1ccc(S(=O)(=O)N(Cc2ccc(Cl)cc2)C2CCCC2)cc1)N(CCCCO)CC1CCCCC1 [Compound 33]
30 to 100 nM | O=S(=O)(c1ccc(S(=O)(=O)N(Cc2ccc(Cl)cc2)C2CCCC2)cc1)N(Cc1ccccc1Br)CC1CCCCC1 [Compound 34, N1-(2-bromobenzyl)-N4-(4-chlorobenzyl)-N1-(cyclohexylmethyl)-N4-cyclopentylbenzene-1,4-disulfonamide]
30 to 100 nM | O=S(=O)(c1ccc(S(=O)(=O)N(Cc2ccc(Cl)cc2)C2CCCC2)cc1)N(Cc1cccc(Br)c1)CC1CCCCC1 [Compound 35, N1-(3-bromobenzyl)-N4-(4-chlorobenzyl)-N1-(cyclohexylmethyl)-N4-cyclopentylbenzene-1,4-disulfonamide]
30 to 100 nM | O=S(=O)(c1ccc(S(=O)(=O)N(Cc2ccc(Cl)cc2)C2CCCC2)cc1)N(CC1CCCCC1)c1ccccc1Br [Compound 36, N1-(2-bromophenyl)-N4-(4-chlorobenzyl)-N1-(cyclohexylmethyl)-N4-cyclopentylbenzene-1,4-disulfonamide]
30 to 100 nM | O=S(=O)(NCC1CCOCC1)c1ccc(S(=O)(=O)N(Cc2ccc(Cl)cc2)C2CCCC2)cc1 [Compound 39]
> 1000 nM | Cc1ccsc1N(Cc1ccccn1)S(=O)(=O)c1ccc(S(=O)(=O)N(Cc2ccccn2)c2sccc2C)cc1 [Compound 41]
1 to 30 nM | CCN(Cc1ccccc1)S(=O)(=O)c1ccc(S(=O)(=O)N(Cc2ccccc2)Cc2ccccn2)cc1 [Compound 48, N1,N4-dibenzyl-N1-ethyl-N4-(pyridin-2-ylmethyl)benzene-1,4-disulfonamide]
30 to 100 nM | CC1CCCN(S(=O)(=O)c2ccc(S(=O)(=O)N(Cc3ccccc3Cl)CC3CCCO3)cc2)C1 (stereo not drawn) [Compound 50, N-(2-chlorobenzyl)-4-((3-methylpiperidin-1-yl)sulfonyl)-N-((tetrahydrofuran-2-yl)methyl)benzenesulfonamide]
100 to 1000 nM | COc1ccc(CN(C2CCCCC2C)S(=O)(=O)c2ccc(S(=O)(=O)N(C)C3CCCCC3)cc2)cc1OC (stereo not drawn) [Compound 57, N1-cyclohexyl-N4-(3,4-dimethoxybenzyl)-N1-methyl-N4-(2-methylcyclohexyl)benzene-1,4-disulfonamide]
100 to 1000 nM | COc1cc(CN(C2CCCCC2C)S(=O)(=O)c2ccc(S(=O)(=O)NC3CCCC3)cc2)cc(OC)c1OC (stereo not drawn) [Compound 60, N1-cyclopentyl-N4-(2-methylcyclohexyl)-N4-(3,4,5-trimethoxybenzyl)benzene-1,4-disulfonamide]
1 to 30 nM | CN(Cc1ccccc1)S(=O)(=O)c1ccc(S(=O)(=O)N(Cc2ccc(F)cc2)C2CCCCC2)cc1 [Compound 61, N1-benzyl-N4-cyclohexyl-N4-(4-fluorobenzyl)-N1-methylbenzene-1,4-disulfonamide]
